Results taken from the NIST ThermoML archive (doi:10.1021/je0502501).
± gives the expanded uncertainty stated by the source.

Experiment: wn = mass fraction of the nth substance listed
Details: 313 K, 101 kPa, Liquid, Vibrating tube method

- mass density (w2 = 6.7e-05): 1358.7 ± 3.6 kg/m3
- mass density (w2 = 0.0015): 1357.6 ± 3.6 kg/m3
- mass density (w2 = 0.0089): 1347.3 ± 3.6 kg/m3
- mass density (w2 = 0.016): 1335.5 ± 3.5 kg/m3
Structure (SMILES): CCCCn1cc[n+](C)c1.F[P-](F)(F)(F)(F)F [1-butyl-3-methylimidazolium hexafluorophosphate] + O
